Laboratory results taken from paper PMC4808398 (Cell, 2016).

What was measured:
[1] = target: CASTOR1 homodimer-GATOR2 complex (Homo sapiens, UniProt Q8WTX7); format: binding
[2] = target: CASTOR1-CASTOR2 heterodimer-GATOR2 complex (Homo sapiens, UniProt Q8WTX7); format: binding

Sequence of CASTOR1 homodimer-GATOR2 complex (Q8WTX7 whole entry): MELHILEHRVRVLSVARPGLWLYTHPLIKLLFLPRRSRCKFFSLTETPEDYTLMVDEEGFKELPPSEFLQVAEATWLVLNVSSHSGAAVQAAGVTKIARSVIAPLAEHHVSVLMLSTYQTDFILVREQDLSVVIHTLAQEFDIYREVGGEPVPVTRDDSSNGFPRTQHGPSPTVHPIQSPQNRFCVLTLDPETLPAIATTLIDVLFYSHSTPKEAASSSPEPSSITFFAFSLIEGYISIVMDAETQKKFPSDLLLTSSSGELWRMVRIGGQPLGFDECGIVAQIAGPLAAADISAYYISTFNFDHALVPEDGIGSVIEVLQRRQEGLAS
Sequence of CASTOR1 homodimer-GATOR2 complex (Q9NXC5 whole entry partner): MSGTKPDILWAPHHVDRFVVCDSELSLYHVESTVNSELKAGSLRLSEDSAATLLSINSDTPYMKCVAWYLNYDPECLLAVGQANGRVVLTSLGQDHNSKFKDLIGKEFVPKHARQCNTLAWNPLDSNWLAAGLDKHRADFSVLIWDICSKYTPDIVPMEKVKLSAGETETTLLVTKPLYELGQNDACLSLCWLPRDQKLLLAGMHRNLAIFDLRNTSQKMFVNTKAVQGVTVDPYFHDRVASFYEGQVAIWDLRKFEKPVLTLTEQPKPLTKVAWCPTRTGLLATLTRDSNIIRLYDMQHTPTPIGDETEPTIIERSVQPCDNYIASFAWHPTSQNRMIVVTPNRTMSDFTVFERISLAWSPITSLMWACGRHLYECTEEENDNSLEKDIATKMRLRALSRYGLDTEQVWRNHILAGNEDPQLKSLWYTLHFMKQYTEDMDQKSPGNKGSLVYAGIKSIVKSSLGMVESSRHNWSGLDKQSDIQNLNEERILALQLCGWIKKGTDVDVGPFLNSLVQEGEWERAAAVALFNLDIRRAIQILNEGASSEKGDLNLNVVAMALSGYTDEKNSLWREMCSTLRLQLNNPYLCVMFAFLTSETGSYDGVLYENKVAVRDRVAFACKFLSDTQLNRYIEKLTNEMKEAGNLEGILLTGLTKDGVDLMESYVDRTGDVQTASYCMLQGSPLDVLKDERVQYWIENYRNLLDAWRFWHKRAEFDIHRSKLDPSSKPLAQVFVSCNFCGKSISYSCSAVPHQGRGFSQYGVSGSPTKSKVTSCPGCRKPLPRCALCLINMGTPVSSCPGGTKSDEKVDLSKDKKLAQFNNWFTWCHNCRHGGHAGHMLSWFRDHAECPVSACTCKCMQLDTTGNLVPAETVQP
Sequence of CASTOR1 homodimer-GATOR2 complex (Q96S15 whole entry partner): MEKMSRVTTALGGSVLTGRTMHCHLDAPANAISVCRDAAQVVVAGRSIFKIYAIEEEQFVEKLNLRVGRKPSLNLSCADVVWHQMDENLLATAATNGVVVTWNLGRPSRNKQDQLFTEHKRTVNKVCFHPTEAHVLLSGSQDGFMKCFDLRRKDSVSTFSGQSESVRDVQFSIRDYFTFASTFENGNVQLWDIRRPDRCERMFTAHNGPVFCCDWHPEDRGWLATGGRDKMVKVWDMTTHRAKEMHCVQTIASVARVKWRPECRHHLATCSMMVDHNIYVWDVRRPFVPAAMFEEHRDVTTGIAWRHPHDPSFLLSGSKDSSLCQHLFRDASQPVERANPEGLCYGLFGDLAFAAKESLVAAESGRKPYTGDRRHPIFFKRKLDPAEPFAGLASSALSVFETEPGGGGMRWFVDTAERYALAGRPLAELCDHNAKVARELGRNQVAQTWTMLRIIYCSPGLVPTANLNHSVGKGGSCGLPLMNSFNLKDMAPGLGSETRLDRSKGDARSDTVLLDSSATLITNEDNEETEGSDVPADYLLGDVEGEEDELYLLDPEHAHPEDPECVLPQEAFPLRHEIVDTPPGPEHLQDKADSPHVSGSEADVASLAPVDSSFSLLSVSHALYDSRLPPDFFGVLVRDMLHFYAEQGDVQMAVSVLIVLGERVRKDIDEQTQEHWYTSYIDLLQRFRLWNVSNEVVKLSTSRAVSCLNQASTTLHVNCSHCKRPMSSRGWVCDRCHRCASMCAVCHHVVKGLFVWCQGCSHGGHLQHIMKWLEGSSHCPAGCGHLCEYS
Sequence of CASTOR1 homodimer-GATOR2 complex (Q6PJI9 whole entry partner): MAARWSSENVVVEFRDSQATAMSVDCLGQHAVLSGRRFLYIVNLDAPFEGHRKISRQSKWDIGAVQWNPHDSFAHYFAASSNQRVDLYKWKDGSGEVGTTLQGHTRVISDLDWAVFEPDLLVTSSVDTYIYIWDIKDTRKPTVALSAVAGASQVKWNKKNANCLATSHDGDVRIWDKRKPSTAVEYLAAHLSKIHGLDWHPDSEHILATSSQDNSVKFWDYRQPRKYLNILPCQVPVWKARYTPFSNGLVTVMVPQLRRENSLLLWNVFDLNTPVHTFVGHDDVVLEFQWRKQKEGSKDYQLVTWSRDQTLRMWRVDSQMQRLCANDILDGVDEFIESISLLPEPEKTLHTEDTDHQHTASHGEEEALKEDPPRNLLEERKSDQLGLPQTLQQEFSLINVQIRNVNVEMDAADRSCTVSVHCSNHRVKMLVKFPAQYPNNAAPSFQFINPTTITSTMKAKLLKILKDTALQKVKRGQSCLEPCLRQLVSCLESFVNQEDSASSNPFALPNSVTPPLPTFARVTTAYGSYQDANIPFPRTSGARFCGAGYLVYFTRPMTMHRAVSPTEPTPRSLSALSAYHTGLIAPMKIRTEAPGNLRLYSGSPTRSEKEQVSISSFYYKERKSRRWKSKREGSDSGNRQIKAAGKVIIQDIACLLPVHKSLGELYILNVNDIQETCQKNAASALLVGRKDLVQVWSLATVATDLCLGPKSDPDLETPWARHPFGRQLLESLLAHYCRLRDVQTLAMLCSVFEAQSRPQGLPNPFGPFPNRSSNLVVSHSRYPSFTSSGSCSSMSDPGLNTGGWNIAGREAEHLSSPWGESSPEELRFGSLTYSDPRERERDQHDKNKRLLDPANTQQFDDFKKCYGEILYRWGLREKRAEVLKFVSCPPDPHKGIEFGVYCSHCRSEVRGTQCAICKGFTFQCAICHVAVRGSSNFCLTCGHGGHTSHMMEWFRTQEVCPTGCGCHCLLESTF
Sequence of CASTOR1 homodimer-GATOR2 complex (Q96EE3 whole entry partner): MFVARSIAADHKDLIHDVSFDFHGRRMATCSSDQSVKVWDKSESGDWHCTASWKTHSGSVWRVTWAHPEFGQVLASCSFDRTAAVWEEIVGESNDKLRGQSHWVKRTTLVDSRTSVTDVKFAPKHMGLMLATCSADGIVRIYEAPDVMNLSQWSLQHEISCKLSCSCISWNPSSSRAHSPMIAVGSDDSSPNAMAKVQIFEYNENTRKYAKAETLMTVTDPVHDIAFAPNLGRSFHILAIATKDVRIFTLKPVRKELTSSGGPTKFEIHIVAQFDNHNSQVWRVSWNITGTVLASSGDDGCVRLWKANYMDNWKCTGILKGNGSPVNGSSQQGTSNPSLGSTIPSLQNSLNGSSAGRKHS
Sequence of CASTOR1 homodimer-GATOR2 complex (P55735 2-322 partner): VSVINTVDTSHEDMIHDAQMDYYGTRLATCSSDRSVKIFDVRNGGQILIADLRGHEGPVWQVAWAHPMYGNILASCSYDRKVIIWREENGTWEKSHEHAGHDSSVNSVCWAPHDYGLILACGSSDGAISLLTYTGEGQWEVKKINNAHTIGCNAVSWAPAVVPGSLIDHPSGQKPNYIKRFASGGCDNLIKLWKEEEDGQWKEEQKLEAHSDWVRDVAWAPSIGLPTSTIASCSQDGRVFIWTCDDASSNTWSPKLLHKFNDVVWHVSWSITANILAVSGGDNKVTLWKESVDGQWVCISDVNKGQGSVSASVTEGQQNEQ

IC50 [1]: 20 to 40 µM
IC50 [2]: 20 to 40 µM
SMILES: N=C(N)NCCC[C@H](N)C(=O)O [arginine]
